Test results: PubChem BioAssay (NCI)
Where “and” joins values, the source holds several entries; their conditions need not be identical. Identical values can stand only once.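 Cells were grown in 96-well plates and exposed to each compound for 48 hours at five concentrations; endpoints were interpolated linearly between bracketing concentrations, or set to the highest concentration if not reached. GI50 marks 50% less growth. TGI marks complete inhibition of growth.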

Each compound was assayed on A549 NSCLC (assay: DTP human tumour cell line panel, 48 h).

Row | SMILES | GI50 | TGI
1 | C=C(CNCCO)[C@@H]1CC[C@]2(CO)CC[C@]3(C)[C@H](CC[C@@H]4[C@@]5(C)CCC(N)C(C)(C)[C@@H]5CC[C@]43C)[C@@H]12 (stereo partly specified) | 2.41 µM | 6.69 µM
2 | Nc1cc2nc3ccccc3sc-2cc1=O | 2.06 µM | 4.82 µM
3 | CCN(CC)CC(C(=O)Nc1c(C)cccc1C)/C(C)=N\NC(=O)C[N+](C)(C)C (stereo unspecified) |  | > 100 µM
4 | CC1=C(C(=O)Nc2ccccc2C)C(c2ccco2)C(C(=O)Nc2ccccc2C)=C(C)N1C |  | > 100 µM
5 | COc1cc2nc(-c3ccc(C(F)(F)F)cc3)cc(OCCCN3CCC(O)CC3)c2cc1OC | 1.65 µM | 18.4 µM
6 | CC(=O)OC(C)C(=O)C1c2cccc(O)c2C(=O)c2c(O)cc(C)cc21 (stereo unspecified) |  | 1.11 µM
7 | CC(=O)C(CN(C(C)C)C(C)C)C(c1ccccc1)c1c(O)c2ccccc2oc1=O (stereo unspecified) |  | > 100 µM
8 | O=C1NNC(=O)c2ccccc2SSc2ccccc2C(=O)NNC(=O)c2ccccc2SSc2ccccc21 | 11.3 µM | 50 µM and > 100 µM
9 | NC(CCc1nc(-c2ccc(Cl)cc2)cs1)C(=O)O (stereo unspecified) |  | > 100 µM
10 | COc1ccc(-n2/c(=N/C(=S)N(C)C)ss/c2=N\C(=S)N(C)C)cc1 |  | > 100 µM
11 | COc1cc(C(=O)/C=C/c2sc(Cl)nc2Cl)cc(OC)c1OC | 3.18 µM | 11.8 µM
12 | COc1cc2nc(C)nc(N[C@H](C)c3cc(N)cc(C(F)(F)F)c3)c2cc1O[C@H]1CCOC1 | 14.8 µM | 32.4 µM
13 | O=C1c2ccccc2C(=O)c2sc(Nc3cccc(Cl)c3)nc21 |  | 4.6 µM
14 | Fc1ccc(Nc2ncnc3ccc(-c4cnc5[nH]ccc5c4)cc23)cc1Cl | 1.79 µM | 5.33 µM
15 | CN(C)CCCNC1=C(Cl)C(=O)c2ccccc2C1=O | 16.1 µM | 32.5 µM
16 | O=C(Nc1ccc(F)cc1F)c1cc(I)ccc1O | 3.1 µM | > 100 µM
17 | CCOc1ccccc1-n1c(CN2CCN(C(=O)COc3ccc(CNCCCCCCN4C5CCCC4CC(OC(=O)Nc4cc(C)ccc4OC)C5)cc3)CC2)nc2ccccc2c1=O (stereo unspecified) | 1.67 µM | 3.27 µM
18 | CC1(C)COC(c2ccc(C(F)(F)F)cc2C(O)c2ccc3ccccc3c2)=N1 (stereo unspecified) | > 10 µM | > 100 µM
19 | COc1ccc(NC(=O)c2cc(OC)cc(OC)c2)cc1 |  | > 100 µM
20 | CC1(C)OC(=O)C(=Cc2ccc(O)cc2)C(=O)O1 |  | > 100 µM
21 | COc1ccc(/C=C\c2cc(OC)c3c(c2)OCO3)c(O)c1O |  | > 100 µM
22 | CC[C@@]12CCCN3CC[C@]4(c5cccc(OC)c5N(C(C)=O)[C@@H]4CC1)[C@H]32 |  | > 100 µM

These compounds were tested on U251 CNS (assay: DTP human tumour cell line panel, 48 h).

Row | SMILES | GI50 | TGI
23 | O=C(CN1CCN(c2cc3c(cc2F)c(=O)c(C(=O)N/N=C/c2ccccc2O)cn3C2CC2)CC1)N/N=C\c1ccccc1O | 0.367 µM | > 100 µM
24 | C=C(CNCCO)[C@@H]1CC[C@]2(CO)CC[C@]3(C)[C@H](CC[C@@H]4[C@@]5(C)CCC(N)C(C)(C)[C@@H]5CC[C@]43C)[C@@H]12 (stereo partly specified) | 1.55 µM | 2.89 µM
25 | Nc1cc2nc3ccccc3sc-2cc1=O | 3.63 µM | 15.1 µM
26 | CCN(CC)CC(C(=O)Nc1c(C)cccc1C)/C(C)=N\NC(=O)C[N+](C)(C)C (stereo unspecified) |  | > 100 µM
27 | CC1=C(C(=O)Nc2ccccc2C)C(c2ccco2)C(C(=O)Nc2ccccc2C)=C(C)N1C |  | > 100 µM
28 | COc1cc2nc(-c3ccc(C(F)(F)F)cc3)cc(OCCCN3CCC(O)CC3)c2cc1OC | 2.12 µM | 20.6 µM
29 | CC(=O)OC(C)C(=O)C1c2cccc(O)c2C(=O)c2c(O)cc(C)cc21 (stereo unspecified) |  | 1.11 µM
30 | CC(=O)C(CN(C(C)C)C(C)C)C(c1ccccc1)c1c(O)c2ccccc2oc1=O (stereo unspecified) |  | > 100 µM
31 | O=C1NNC(=O)c2ccccc2SSc2ccccc2C(=O)NNC(=O)c2ccccc2SSc2ccccc21 | 7.11 µM | 50 µM and > 100 µM
32 | NC(CCc1nc(-c2ccc(Cl)cc2)cs1)C(=O)O (stereo unspecified) |  | > 100 µM
33 | COc1ccc(-n2/c(=N/C(=S)N(C)C)ss/c2=N\C(=S)N(C)C)cc1 |  | > 100 µM
34 | COc1cc(C(=O)/C=C/c2sc(Cl)nc2Cl)cc(OC)c1OC | 1.88 µM | 3.69 µM
35 | COc1cc2nc(C)nc(N[C@H](C)c3cc(N)cc(C(F)(F)F)c3)c2cc1O[C@H]1CCOC1 | 10.6 µM | 23.7 µM
36 | O=C1c2ccccc2C(=O)c2sc(Nc3cccc(Cl)c3)nc21 |  | 2.97 µM
37 | Fc1ccc(Nc2ncnc3ccc(-c4cnc5[nH]ccc5c4)cc23)cc1Cl | 2.17 µM | 6.2 µM
38 | CN(C)CCCNC1=C(Cl)C(=O)c2ccccc2C1=O | 1.83 µM | 3.27 µM
39 | O=C(Nc1ccc(F)cc1F)c1cc(I)ccc1O | 3.07 µM | > 100 µM
40 | CCOc1ccccc1-n1c(CN2CCN(C(=O)COc3ccc(CNCCCCCCN4C5CCCC4CC(OC(=O)Nc4cc(C)ccc4OC)C5)cc3)CC2)nc2ccccc2c1=O (stereo unspecified) | 0.61 µM | 1.2 µM
41 | CC1(C)COC(c2ccc(C(F)(F)F)cc2C(O)c2ccc3ccccc3c2)=N1 (stereo unspecified) | > 100 µM | > 100 µM
42 | COc1ccc(NC(=O)c2cc(OC)cc(OC)c2)cc1 |  | > 61.3 µM
43 | CC1(C)OC(=O)C(=Cc2ccc(O)cc2)C(=O)O1 |  | > 100 µM
44 | COc1ccc(/C=C\c2cc(OC)c3c(c2)OCO3)c(O)c1O |  | 19.3 µM
45 | CC[C@@]12CCCN3CC[C@]4(c5cccc(OC)c5N(C(C)=O)[C@@H]4CC1)[C@H]32 |  | > 100 µM

What follows are compounds tested on MALME-3M melanoma (assay: DTP human tumour cell line panel, 48 h).

Row | SMILES | GI50 | TGI
46 | O=C(CN1CCN(c2cc3c(cc2F)c(=O)c(C(=O)N/N=C/c2ccccc2O)cn3C2CC2)CC1)N/N=C\c1ccccc1O | 0.627 µM | > 63.4 µM
47 | C=C(CNCCO)[C@@H]1CC[C@]2(CO)CC[C@]3(C)[C@H](CC[C@@H]4[C@@]5(C)CCC(N)C(C)(C)[C@@H]5CC[C@]43C)[C@@H]12 (stereo partly specified) | 1.58 µM | 3.11 µM
48 | Nc1cc2nc3ccccc3sc-2cc1=O | 2.04 µM | 3.62 µM
49 | CCN(CC)CC(C(=O)Nc1c(C)cccc1C)/C(C)=N\NC(=O)C[N+](C)(C)C (stereo unspecified) |  | > 100 µM
50 | CC1=C(C(=O)Nc2ccccc2C)C(c2ccco2)C(C(=O)Nc2ccccc2C)=C(C)N1C |  | > 100 µM
51 | COc1cc2nc(-c3ccc(C(F)(F)F)cc3)cc(OCCCN3CCC(O)CC3)c2cc1OC | 2.65 µM | 11.8 µM
52 | CC(=O)OC(C)C(=O)C1c2cccc(O)c2C(=O)c2c(O)cc(C)cc21 (stereo unspecified) |  | 1.82 µM
53 | CC(=O)C(CN(C(C)C)C(C)C)C(c1ccccc1)c1c(O)c2ccccc2oc1=O (stereo unspecified) |  | > 100 µM
54 | O=C1NNC(=O)c2ccccc2SSc2ccccc2C(=O)NNC(=O)c2ccccc2SSc2ccccc21 | 25.9 µM | 42.6 µM and > 100 µM
55 | NC(CCc1nc(-c2ccc(Cl)cc2)cs1)C(=O)O (stereo unspecified) |  | > 100 µM
56 | COc1ccc(-n2/c(=N/C(=S)N(C)C)ss/c2=N\C(=S)N(C)C)cc1 |  | > 100 µM
57 | COc1cc(C(=O)/C=C/c2sc(Cl)nc2Cl)cc(OC)c1OC | 1.59 µM | 3.14 µM
